{
  "source": "patent US10640457B2",
  "about": "“Histone acetyltransferase activators and uses thereof” (The Trustees of Columbia University in the City of New York, priority 2009, dated 2020)",
  "key": {"HDAC10": {"target": "T1, HDAC10 (Homo sapiens, UniProt Q969S8)", "T1 sequence (Q969S8 1-669)": "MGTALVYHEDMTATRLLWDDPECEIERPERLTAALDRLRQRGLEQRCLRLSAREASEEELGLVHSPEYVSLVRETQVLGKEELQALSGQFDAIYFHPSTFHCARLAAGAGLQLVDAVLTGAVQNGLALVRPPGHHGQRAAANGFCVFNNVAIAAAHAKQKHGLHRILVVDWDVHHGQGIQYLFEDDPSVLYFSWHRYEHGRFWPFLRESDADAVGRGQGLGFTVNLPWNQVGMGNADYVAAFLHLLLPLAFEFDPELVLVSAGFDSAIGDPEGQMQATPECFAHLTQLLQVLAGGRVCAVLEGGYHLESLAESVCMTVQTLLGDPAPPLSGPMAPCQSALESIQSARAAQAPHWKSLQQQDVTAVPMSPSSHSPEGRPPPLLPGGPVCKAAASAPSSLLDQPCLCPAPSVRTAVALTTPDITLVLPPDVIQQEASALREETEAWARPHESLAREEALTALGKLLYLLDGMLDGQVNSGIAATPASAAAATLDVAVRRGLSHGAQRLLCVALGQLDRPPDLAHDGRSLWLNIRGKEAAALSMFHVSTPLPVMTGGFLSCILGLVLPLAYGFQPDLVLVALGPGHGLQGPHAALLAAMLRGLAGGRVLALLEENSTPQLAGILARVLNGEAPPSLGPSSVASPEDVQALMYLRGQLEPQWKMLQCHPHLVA", "assay": "HDAC10 fluorogenic activity assay", "settings": "for % Activity: Repeat1/Repeat2, listed as OA2"}, "Sirtuin 2": {"target": "T2, Sirtuin 2 (Homo sapiens, UniProt Q8IXJ6)", "T2 sequence (Q8IXJ6 1-389)": "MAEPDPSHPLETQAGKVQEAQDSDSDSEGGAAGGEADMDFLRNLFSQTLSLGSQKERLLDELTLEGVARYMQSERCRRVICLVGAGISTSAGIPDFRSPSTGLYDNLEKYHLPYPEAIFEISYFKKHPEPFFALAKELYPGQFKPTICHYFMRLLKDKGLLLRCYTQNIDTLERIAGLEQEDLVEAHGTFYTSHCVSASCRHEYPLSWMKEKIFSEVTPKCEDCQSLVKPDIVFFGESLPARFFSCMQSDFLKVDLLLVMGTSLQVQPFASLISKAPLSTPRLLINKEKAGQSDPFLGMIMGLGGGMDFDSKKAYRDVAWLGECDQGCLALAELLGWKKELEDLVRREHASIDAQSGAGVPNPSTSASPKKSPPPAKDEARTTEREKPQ", "assay": "Sirtuin 2 fluorogenic activity assay", "settings": "for % Activity: Repeat1/Repeat2, listed as OA2"}, "HDAC7": {"target": "T3, HDAC7 (Homo sapiens, UniProt Q8WUI4)", "T3 sequence (Q8WUI4 518-952 limits assumed)": "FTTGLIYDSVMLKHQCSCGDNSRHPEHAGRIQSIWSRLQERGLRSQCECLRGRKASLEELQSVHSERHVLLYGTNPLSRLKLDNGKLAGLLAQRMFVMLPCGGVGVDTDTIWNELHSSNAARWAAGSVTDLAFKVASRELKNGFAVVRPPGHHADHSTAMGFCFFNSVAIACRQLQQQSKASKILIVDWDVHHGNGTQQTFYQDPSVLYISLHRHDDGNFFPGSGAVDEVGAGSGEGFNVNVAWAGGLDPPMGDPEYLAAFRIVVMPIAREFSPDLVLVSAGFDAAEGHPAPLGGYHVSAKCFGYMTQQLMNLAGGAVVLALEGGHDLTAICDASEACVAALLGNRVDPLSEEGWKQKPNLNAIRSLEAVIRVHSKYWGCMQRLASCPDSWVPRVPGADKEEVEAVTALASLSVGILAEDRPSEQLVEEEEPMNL", "assay": "HDAC7 fluorogenic activity assay", "settings": "Repeat1/Repeat2, listed as OA2"}, "YAC128 mice": {"test_system": "YAC128 mice", "assay": "Accelerating rotarod in YAC128 Huntington's Disease mice", "format": "in vivo", "settings": "YF2 5 mg/kg from age 2 months", "method": "Animals: Mouse models of Huntington's Disease (YAC128) versus wildtype (WT) littermates.\nAccelerating Rotarod: This assay is a common assay used to monitor motor coordination in mouse models of Huntington's disease (HD). After a training period to acclimatize the mice to the apparatus, mice are placed on a rod rotating at 5 rpm. Over the test period of 300 sec, the rod increases its rotational speed from 5 rpm to 40 rpm. The time at which the mouse falls off of the rod is recorded. Each mouse is subject to 3 runs per day (shown as a per day average) across 3 days (d1, d2, d3). Typically 8 to 12 mice per group are used in this assay. Both male and female data are shown for age 4 months (FIG. 83A) and 6 months (FIG. 83B)."}},
  "note": "“And” between values parts separate entries of the source, which are not always exact repeats. Identical values can stand only once.",
  "data": [
    {"compound": "CCOc1cccc(OCCN(C)C)c1C(=O)Nc1ccc(Cl)c(C(F)(F)F)c1", "note": "[YF2]", "values": [
      {"measurement": "IC50", "setting": "HDAC10", "value": "> 200", "unit": "µM"},
      {"measurement": "% Activity", "setting": "HDAC10; OA2 Log[nM] 0.5", "value": "91.08% and 101.05%"},
      {"measurement": "% Activity", "setting": "HDAC10; OA2 Log[nM] 1.0", "value": "103.77% and 104.31%"},
      {"measurement": "% Activity", "setting": "HDAC10; OA2 Log[nM] 1.5", "value": "105.57% and 103.85%"},
      {"measurement": "% Activity", "setting": "HDAC10; OA2 Log[nM] 2.0", "value": "103.04% and 105.77%"},
      {"measurement": "% Activity", "setting": "HDAC10; OA2 Log[nM] 2.5", "value": "104.90% and 105.64%"},
      {"measurement": "% Activity", "setting": "HDAC10; OA2 Log[nM] 3.0", "value": "99.94% and 104.64%"},
      {"measurement": "% Activity", "setting": "HDAC10; OA2 Log[nM] 3.5", "value": "96.95% and 106.25%"},
      {"measurement": "% Activity", "setting": "HDAC10; OA2 Log[nM] 4.0", "value": "96.50% and 102.89%"},
      {"measurement": "% Activity", "setting": "HDAC10; OA2 Log[nM] 4.5", "value": "95.38% and 102.89%"},
      {"measurement": "% Activity", "setting": "HDAC10; OA2 Log[nM] 5.3", "value": "116.56% and 86.05%"},
      {"measurement": "IC50", "setting": "Sirtuin 2", "value": "> 200", "unit": "µM"},
      {"measurement": "% Activity", "setting": "Sirtuin 2; OA2 Log[nM] 0.5", "value": "97.71% and 101.89%"},
      {"measurement": "% Activity", "setting": "Sirtuin 2; OA2 Log[nM] 1.0", "value": "96.21% and 97.38%"},
      {"measurement": "% Activity", "setting": "Sirtuin 2; OA2 Log[nM] 1.5", "value": "98.59% and 101.33%"},
      {"measurement": "% Activity", "setting": "Sirtuin 2; OA2 Log[nM] 2.0", "value": "94.20% and 99.91%"},
      {"measurement": "% Activity", "setting": "Sirtuin 2; OA2 Log[nM] 2.5", "value": "94.74% and 96.43%"},
      {"measurement": "% Activity", "setting": "Sirtuin 2; OA2 Log[nM] 3.0", "value": "94.53% and 98.73%"},
      {"measurement": "% Activity", "setting": "Sirtuin 2; OA2 Log[nM] 3.5", "value": "96.80% and 98.23%"},
      {"measurement": "% Activity", "setting": "Sirtuin 2; OA2 Log[nM] 4.0", "value": "97.71% and 98.83%"},
      {"measurement": "% Activity", "setting": "Sirtuin 2; OA2 Log[nM] 4.5", "value": "92.45% and 95.14%"},
      {"measurement": "% Activity", "setting": "Sirtuin 2; OA2 Log[nM] 5.3", "value": "98.64% and 99.53%"},
      {"measurement": "% Activity", "setting": "HDAC7; OA2 Log[nM] 0.5", "value": "103.11% and 97.69%"},
      {"measurement": "% Activity", "setting": "HDAC7; OA2 Log[nM] 1.0", "value": "91.37% and 91.47%"},
      {"measurement": "% Activity", "setting": "HDAC7; OA2 Log[nM] 1.5", "value": "101.63% and 104.98%"},
      {"measurement": "% Activity", "setting": "HDAC7; OA2 Log[nM] 2.0", "value": "104.61% and 97.68%"},
      {"measurement": "% Activity", "setting": "HDAC7; OA2 Log[nM] 2.5", "value": "95.80% and 95.75%"},
      {"measurement": "% Activity", "setting": "HDAC7; OA2 Log[nM] 3.0", "value": "96.02% and 98.69%"},
      {"measurement": "% Activity", "setting": "HDAC7; OA2 Log[nM] 3.5", "value": "100.73% and 92.77%"},
      {"measurement": "% Activity", "setting": "HDAC7; OA2 Log[nM] 4.0", "value": "90.73% and 101.73%"},
      {"measurement": "% Activity", "setting": "HDAC7; OA2 Log[nM] 4.5", "value": "95.78% and 99.80%"},
      {"measurement": "% Activity", "setting": "HDAC7; OA2 Log[nM] 5.3", "value": "96.89% and 100.04%"},
      {"measurement": "rotarod performance deficit of YAC128 vs WT mice", "setting": "YAC128 mice; female mice, 6 months of age", "value": "significance is lost"},
      {"measurement": "rotarod performance deficit of YAC128 vs WT mice", "setting": "YAC128 mice; male mice, 4 months of age", "value": "significance is lost"}
    ]}
  ]
}
